For data set [1], the system named is H1299 human non-small cell lung cell line. Briefly: MTT cell viability, H1299 cells. Conditions: 24 hours. In kind it is cell-based. Here is the method:
(§1) After drug treatment, the cells were washed with PBS and replaced with fresh complete RPMI-1640 medium for 2 days. Thereafter, the medium was replaced and the cells were incubated with 0.5 mg/mL of MTT reagent (Sigma Chemical Co., St. Louis, Mo.) in complete RPMI-1640 medium for 4 hours. The intensity of formazan was measured at 565 nm using a plate reader (VERSAmax, Molecular Dynamics, Sunnyvale, Calif.). The relative percentage of cell viability was calculated by dividing the absorbance of treated cells by that of the control in each experiment.

A short description of data set [2]: MTT cell viability, HFL1 normal lung fibroblasts. The settings on record: human, HFL1 normal lung fibroblast cells, 0 to 40 μM. Format: cell-based. As for the experimental part: as §1
For data set [3], the target named is T1, MKNK2 (MAPK-interacting kinase-2) (Homo sapiens, UniProt Q9HBH9).
T1 construct: purchased Merck Millipore (KinaseProfiler service)
T1 sequence (Q9HBH9 whole entry): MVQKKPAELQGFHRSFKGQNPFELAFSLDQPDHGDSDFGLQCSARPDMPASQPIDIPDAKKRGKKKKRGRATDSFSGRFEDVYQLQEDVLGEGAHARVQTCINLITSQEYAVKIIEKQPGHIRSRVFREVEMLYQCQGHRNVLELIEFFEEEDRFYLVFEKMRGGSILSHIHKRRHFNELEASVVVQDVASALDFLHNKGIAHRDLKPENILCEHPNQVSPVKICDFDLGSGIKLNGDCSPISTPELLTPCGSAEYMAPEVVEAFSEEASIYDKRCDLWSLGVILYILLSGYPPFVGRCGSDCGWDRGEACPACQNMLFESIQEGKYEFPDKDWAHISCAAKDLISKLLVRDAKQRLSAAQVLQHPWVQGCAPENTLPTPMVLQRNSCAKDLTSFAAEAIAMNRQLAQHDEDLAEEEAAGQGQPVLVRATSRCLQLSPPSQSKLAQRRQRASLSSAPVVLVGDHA
Briefly: KinaseProfiler assay, MKNK2. In kind it is biochemical. Conditions: read-out: KAR value (kinase activity remaining). From the text: (§2) The kinase activity remaining (KAR) value is […] related to kinase activity. […]

Data set [4] addresses T2, MAPK14 (stress-activated protein kinase-2a) (Homo sapiens, UniProt Q16539).
T2 construct: purchased Merck Millipore (KinaseProfiler service)
Description: KinaseProfiler assay, MAPK14. Format: biochemical. Conditions: MAPK14; 10 μM; read-out: KAR value (kinase activity remaining).
Description: as §2

In data set [5] the target is T3, RET (product of ret proto-oncogene) (Homo sapiens, UniProt P07949).
T3 construct: purchased Merck Millipore (KinaseProfiler service)
T3 sequence (P07949 29-1114): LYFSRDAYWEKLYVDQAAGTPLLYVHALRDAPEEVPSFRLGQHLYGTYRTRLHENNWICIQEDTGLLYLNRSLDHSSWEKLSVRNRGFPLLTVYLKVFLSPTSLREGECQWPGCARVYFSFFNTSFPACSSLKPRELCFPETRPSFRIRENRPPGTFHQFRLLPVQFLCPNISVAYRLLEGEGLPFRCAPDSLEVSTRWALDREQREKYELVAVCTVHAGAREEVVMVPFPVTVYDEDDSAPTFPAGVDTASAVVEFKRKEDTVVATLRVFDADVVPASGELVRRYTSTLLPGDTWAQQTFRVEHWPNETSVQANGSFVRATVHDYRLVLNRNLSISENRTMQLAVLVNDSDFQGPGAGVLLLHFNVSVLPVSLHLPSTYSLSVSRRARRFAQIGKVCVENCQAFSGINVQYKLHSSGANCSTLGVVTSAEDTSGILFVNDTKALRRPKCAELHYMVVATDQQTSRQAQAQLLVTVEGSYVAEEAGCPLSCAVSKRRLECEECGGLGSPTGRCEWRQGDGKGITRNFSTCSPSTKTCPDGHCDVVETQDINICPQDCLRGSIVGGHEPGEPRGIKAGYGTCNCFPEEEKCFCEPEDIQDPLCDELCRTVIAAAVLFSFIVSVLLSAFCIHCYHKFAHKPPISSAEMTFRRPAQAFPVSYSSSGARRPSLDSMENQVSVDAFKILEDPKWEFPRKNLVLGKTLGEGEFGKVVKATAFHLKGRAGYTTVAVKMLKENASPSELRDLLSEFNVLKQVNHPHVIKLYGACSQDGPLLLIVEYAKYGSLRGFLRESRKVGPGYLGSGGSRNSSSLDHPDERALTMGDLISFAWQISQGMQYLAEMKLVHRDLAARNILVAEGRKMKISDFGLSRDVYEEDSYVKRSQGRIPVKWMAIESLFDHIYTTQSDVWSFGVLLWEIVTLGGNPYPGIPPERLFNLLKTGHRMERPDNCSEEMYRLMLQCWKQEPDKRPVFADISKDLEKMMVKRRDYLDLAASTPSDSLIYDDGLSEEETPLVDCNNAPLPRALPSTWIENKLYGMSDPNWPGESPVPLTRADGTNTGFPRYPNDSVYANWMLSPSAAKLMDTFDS
Description: KinaseProfiler assay, RET. In kind it is biochemical. Conditions: RET; 10 μM; read-out: KAR value (kinase activity remaining).
Description: as §2

Data set [6] concerns A549 cells. Briefly: Annexin V-PI apoptosis analysis by flow cytometry. Conditions: 10-40 μM for 24 hours. In kind it is cell-based, human. (In flow cytometry, cells or beads pass a laser one at a time.)
Description: The Annexin V-PI staining kit (BioVision, Mountain View, Calif.) was used to exam the cells by incubating with fluorescent isothiocyanate (FITC)-conjugated-Annexin V and PI according to the manufacturer's instruction. […] The cells were cultured in 60-mm Petri dish at a density of 7×10^5 cells for 16 to 20 hours. […] The cells were trypsinized and collected by centrifugation at 1500 rpm for 5 minutes. Thereafter, the cells were incubated with 500 μl Annexin V-PI labeling solution (containing 5 μl Annexin V-FITC and 5 μl PI in PBS) at room temperature in the dark for 5 minutes. To avoid cell aggregation, the cell solutions were filtered through a nylon mesh membrane (Becton-Dickinson, San Jose, Calif.). Finally, the samples were analyzed immediately using flow cytometer (FACS Calibur, BD Biosciences, Heidelberg, Germany). The percentage of Annexin V-PI staining cells was quantified from a minimum of 10,000 cells by CellQuest software (BD Biosciences).
For data set [7], the system named is A549 cells. Description: Survivin overexpression (pCT-GFP-sur8 transfection) and MTT cell viability. Format: cell-based, human. The settings on record: A549 cells transfected with pCT-GFP-sur8 vs pCT-GFP2. Here is the method: To further determine the effect that Analogue-18 inhibits surviving so as to induce apoptosis. The pCT-GFP2 and pCT-GFP-sur8 were employed for transfection using Lipofectamine™ 2000 (Invitrogen) according to the manufacturer's instructions. The pCT-GFP-sur8 overexpressed surviving, and the pCT-GFP2 only overexpressed green fluorescent protein and was used as a control. A549 cells were plated in 60-mm Petri dish at a density of 2×10^6 per well for 16 to 20 hours, then were transfected with 20 μg of pCT-GFP-sur8 or pCT-GFP2 in serum-free medium for 8 hours at 37° C. in a CO2 incubator. Then, the equal amount medium with 20% fetal bovine serum (FBS) was added without removing the transfection mixture. And proceed the incubation for additional 24 hours. After transfection, the cells were subjected to cytotoxicity assay according to Example 2 and Western blot analysis according to Example 4.

Data set [8] concerns A549 human lung xenograft tumors. Briefly: Tumor growth of xenograft human lung tumors in nude mice. In kind it is in vivo. The settings on record: 30 mg/kg three times every 4 days, day 16; control groups 406.52 mm^3. The source says: The present invention determines the effect of Analogue-18 on tumor growth of the xenograft human lung tumors in nude mice. BALB/cAnN.Cg-FoxnInu/CrlNarl mice (3-week-old male) were obtained from BioLASCO (BioLASCO Co., Ltd., Taipei, Taiwan). After 2 weeks for environmental adaption, the mice were used for human lung cancer cell inoculation. Solid A549 flank tumors were established by subcutaneous injection of 2×10^6 cells. After 10 days, the mice bearing A549 human lung xenograft tumors were injected with 100 μl corn oil (control) or 30 mg/kg Analogue-18 for three times every 4 days. The tumor size of the mice was measured by a digital caliper every 4 days and calculated by the following formula: (length)×(width)^2×0.5. The xenograft tumors were harvested from scarified mice. The tumors were homogenized and the total lysate were subjected to Western blot analysis according to Example 4.
A general note: In xenograft studies the graft and the host belong to different species.

The next data set relates to caspase 3. Briefly: Western blot of active caspase 3 in A549 cells. The settings on record: 10-40 μM, 24 hours.

T2 sequence (Q16539 whole entry): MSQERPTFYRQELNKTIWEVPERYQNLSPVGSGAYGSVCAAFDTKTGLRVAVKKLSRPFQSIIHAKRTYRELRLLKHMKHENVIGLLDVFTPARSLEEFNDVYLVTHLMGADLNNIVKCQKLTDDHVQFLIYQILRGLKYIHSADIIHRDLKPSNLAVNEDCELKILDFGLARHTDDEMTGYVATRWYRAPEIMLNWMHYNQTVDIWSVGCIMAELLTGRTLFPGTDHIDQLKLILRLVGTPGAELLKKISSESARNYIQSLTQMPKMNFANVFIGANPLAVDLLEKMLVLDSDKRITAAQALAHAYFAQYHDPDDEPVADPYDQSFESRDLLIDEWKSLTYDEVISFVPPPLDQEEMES
Description for caspase 3: The protease inhibitors including 1 μg/ml aprotinin, 0.5 μg/ml leupeptin, and 100 μg/ml 4-(2-aminoethyl)benzenesulfonyl fluoride were added to the cell suspensions. The lysates were vibrated for 30 minutes at 4° C. and centrifuged at 10,000 rpm for 10 minutes. The protein concentrations were determined by the BCA protein assay kit (Pierce, Rockford, Ill.). […] The membranes were blocked overnight at 4° C. using blocking buffer (5% non-fat dried milk in solution containing 50 mM Tris/HCl (pH 8.0), 2 mM CaCl2, 80 mM NaCl, 0.05% Tween 20 and 0.02% sodium azide). The membranes were sequentially hybridized with primary antibody and followed with a horseradish peroxidase-conjugated secondary antibody. The protein bands were visualized on the X-ray film using the enhanced chemiluminescence detection system (PerkinElmer Life and Analytical Sciences, Boston, Mass.). […] To verify equal protein loading and transfer, actin was used as the protein loading control. The gel digitizing software, Un-Scan-It gel (Ver. 5.1, Silk Scientific, Inc., Orem, Utah), was used to analyze the intensity of protein bands on X-ray film.
A549 cells were plated at a density of 1×10^6 cells per 60-mm Petri dish in complete medium for 16 to 20 hours. […] To verify equal protein loading and transfer, actin was used as the protein loading control.

Turning to `CCCCCCCCCCCCOC(=O)CCC(=O)N1CCN(CCCOc2cc3c(Nc4ccc(F)c(Cl)c4)ncnc3cc2OC)CC1` [Analogue-18, dodecyl 4-(4-(3-(4-(3-chloro-4-fluorophenylamino)-7-methoxyquinazolin-6-yloxy)propyl)piperazin-1-yl)-4-oxobutanoate], the reducing cell viability result in data set [1] (H1299, 0 to 40 μM, compared with Iressa) is “more effective on reducing cell viability than Iressa”. Also, the toxicity effects result in data set [1] (H1299, 40 μM) was “more than 99%”. In data set [2], the viability at 24 h was over 30%. Further, the remaining activity at 10 µM is 85% in [3], 87% in data set [4] and 98% in [5]. The “average of total apoptosis” value in the data set with A549 cells [6] is given as “around 67.9%”. In addition, in the data set on A549 cells [7], the “resistance of survivin-overexpressing cells to induced apoptosis” value is “the transfection of pCT-GFP-sur8 was more resistant to the Analogue-18-induced apoptosis than pCT-GFP2”. Also, the average tumor size in data set [8] came out at 118.19 mm^3. Further, the “active form of caspase 3” value in the data set on caspase 3 is on record as “significantly induced”.

In general, viability refers to the share of living cells, or the viability signal relative to a control.

These data come from patent US9512086B2, “Compound for promoting apoptosis of cancer cells and a pharmaceutical composition containing the same and uses thereof” (National Chiao Tung University, priority 2014, dated 2016).
